Source: patent US11931328B2, “Stabilized formulations of 4-amino-3-substituted butanoic acid derivatives” (AMNEAL PHARMACEUTICALS LLC, priority 2019, dated 2024)
“Also recorded” adds a separate entry of the source. Where two headings read alike, the source gives them in different places.

Test: Accelerated stability studies of API/stabilizer preparations (lactam impurity A by HPLC)
Format: physicochemical

Compound | effect of EUDRAGIT E on formation of lactam impurity A (with EUDRAGIT E PO 1, 5, 10% (m/m), stored at 60° C. in closed glass vials, HPLC) | effect of EUDRAGIT E on formation of lactam impurity A
NCC(CC(=O)O)c1ccc(Cl)cc1 (stereo not drawn) [baclofen, 4-amino-3-(4-chlorophenyl)butanoic acid] | stabilized; also recorded: stabilization effect | –
CC(C)C[C@H](CN)CC(=O)O [pregabalin] | – | destabilization effect
NCC1(CC(=O)O)CCCCC1 [gabapentin] | – | destabilization effect
